Experimental data taken from article PMC2922070 (Journal of peptide science : an official publication of the …, 2009).

Legend:
Type in all cases: biochemical
MK5 = target: T1, MK5 (Homo sapiens, UniProt Q8IW41); assay: Radiometric kinase activity; conditions: ± S.D. between two samples, SD
T1 sequence (Q8IW41 1-473): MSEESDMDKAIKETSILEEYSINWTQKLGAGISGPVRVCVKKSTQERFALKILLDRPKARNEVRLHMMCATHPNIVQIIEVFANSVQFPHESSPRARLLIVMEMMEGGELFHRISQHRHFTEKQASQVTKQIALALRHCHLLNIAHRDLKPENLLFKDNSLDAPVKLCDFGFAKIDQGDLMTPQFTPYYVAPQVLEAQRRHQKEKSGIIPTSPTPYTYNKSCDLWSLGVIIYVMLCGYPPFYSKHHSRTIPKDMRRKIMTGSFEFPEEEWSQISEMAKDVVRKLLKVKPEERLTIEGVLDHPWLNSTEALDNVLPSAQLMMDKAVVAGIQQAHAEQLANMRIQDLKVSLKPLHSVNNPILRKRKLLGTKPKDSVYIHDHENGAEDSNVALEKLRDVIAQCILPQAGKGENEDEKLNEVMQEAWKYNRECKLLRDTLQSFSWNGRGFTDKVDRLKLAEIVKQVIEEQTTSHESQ

MK3 = MK3 (Homo sapiens, UniProt Q16644); assay: Radiometric kinase activity; conditions: ± S.D. between two samples, SD
Sequence of MK3 (Q16644 whole entry): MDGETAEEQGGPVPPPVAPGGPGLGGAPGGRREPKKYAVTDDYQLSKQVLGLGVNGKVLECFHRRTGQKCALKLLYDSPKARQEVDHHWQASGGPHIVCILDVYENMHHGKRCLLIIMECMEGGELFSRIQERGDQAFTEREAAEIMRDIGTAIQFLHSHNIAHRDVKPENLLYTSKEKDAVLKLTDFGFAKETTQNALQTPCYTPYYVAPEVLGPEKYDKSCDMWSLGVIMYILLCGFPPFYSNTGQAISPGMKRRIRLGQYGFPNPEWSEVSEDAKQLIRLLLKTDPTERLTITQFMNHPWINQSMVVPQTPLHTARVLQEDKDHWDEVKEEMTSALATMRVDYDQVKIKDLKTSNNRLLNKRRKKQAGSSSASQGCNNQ

PKCδ = PKCδ (Homo sapiens, UniProt Q05655); assay: Radiometric kinase activity; conditions: ± S.D. between two samples, SD
Sequence of PKCδ (Q05655 whole entry): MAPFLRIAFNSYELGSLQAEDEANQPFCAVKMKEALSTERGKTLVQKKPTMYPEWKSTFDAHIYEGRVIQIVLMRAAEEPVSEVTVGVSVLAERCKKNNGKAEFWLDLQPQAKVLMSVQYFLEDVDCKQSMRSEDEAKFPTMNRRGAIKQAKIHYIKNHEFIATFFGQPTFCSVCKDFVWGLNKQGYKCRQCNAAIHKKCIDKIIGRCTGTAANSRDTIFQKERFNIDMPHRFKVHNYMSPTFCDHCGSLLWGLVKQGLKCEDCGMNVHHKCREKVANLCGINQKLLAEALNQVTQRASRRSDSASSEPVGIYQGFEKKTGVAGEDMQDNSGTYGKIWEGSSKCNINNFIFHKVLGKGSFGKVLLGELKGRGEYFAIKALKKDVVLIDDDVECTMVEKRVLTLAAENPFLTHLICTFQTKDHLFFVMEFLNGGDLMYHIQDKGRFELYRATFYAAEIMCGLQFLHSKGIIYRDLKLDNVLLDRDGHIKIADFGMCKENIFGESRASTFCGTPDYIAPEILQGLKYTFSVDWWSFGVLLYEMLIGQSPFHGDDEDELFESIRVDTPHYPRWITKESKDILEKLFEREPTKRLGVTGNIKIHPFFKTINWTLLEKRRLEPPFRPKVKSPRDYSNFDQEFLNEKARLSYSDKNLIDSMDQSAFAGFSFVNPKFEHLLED

MK2 [1] = target: T2, MK2 (Homo sapiens, UniProt P49137); assay: Radiometric IC50 determination
T2 sequence (P49137 whole entry): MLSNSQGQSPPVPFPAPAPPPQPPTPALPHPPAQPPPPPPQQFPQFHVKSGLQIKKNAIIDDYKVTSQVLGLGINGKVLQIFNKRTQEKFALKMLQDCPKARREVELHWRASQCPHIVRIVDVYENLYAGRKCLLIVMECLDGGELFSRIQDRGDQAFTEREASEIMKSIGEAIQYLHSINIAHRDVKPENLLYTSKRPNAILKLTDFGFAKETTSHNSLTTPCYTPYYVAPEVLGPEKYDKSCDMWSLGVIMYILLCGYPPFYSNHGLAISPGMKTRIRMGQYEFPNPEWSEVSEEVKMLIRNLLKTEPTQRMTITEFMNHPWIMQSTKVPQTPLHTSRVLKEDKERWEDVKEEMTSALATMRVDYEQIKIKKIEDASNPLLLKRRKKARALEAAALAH

CaMKI = CaMKI (Homo sapiens, UniProt Q14012); assay: Radiometric kinase activity; conditions: ± S.D. between two samples, SD
Sequence of CaMKI (Q14012 whole entry): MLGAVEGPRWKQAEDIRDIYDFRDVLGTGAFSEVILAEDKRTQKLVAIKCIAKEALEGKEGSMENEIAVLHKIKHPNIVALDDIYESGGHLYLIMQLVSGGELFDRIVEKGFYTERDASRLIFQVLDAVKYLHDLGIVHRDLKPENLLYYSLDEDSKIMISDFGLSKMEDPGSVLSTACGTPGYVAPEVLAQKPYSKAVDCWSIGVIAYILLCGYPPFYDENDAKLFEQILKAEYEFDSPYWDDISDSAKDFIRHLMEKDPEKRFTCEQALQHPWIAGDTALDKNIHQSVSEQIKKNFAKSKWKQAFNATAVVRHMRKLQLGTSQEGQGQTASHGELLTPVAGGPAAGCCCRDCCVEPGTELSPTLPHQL

MLCK = MLCK (Homo sapiens, UniProt Q9H1R3); assay: Radiometric kinase activity; conditions: ± S.D. between two samples, SD
Sequence of MLCK (Q9H1R3 2-596): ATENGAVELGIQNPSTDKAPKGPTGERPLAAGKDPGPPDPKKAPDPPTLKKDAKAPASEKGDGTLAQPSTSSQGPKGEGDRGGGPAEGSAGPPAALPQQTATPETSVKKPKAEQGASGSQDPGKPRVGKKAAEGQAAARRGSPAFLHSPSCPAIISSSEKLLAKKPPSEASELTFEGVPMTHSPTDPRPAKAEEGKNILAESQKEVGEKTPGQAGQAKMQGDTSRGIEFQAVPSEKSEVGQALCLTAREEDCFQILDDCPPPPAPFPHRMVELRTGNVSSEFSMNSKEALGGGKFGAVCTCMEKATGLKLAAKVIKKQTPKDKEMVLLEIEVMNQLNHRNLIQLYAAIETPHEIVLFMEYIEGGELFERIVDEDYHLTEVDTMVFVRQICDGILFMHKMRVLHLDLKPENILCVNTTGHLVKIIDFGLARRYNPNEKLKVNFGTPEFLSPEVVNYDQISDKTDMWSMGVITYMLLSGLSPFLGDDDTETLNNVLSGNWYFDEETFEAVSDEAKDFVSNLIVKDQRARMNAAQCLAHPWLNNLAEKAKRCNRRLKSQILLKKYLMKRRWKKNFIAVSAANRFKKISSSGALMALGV

ROCK-I = ROCK-I (Homo sapiens, UniProt Q13464); assay: Radiometric kinase activity; conditions: ± S.D. between two samples, SD
Sequence of ROCK-I (Q13464 whole entry): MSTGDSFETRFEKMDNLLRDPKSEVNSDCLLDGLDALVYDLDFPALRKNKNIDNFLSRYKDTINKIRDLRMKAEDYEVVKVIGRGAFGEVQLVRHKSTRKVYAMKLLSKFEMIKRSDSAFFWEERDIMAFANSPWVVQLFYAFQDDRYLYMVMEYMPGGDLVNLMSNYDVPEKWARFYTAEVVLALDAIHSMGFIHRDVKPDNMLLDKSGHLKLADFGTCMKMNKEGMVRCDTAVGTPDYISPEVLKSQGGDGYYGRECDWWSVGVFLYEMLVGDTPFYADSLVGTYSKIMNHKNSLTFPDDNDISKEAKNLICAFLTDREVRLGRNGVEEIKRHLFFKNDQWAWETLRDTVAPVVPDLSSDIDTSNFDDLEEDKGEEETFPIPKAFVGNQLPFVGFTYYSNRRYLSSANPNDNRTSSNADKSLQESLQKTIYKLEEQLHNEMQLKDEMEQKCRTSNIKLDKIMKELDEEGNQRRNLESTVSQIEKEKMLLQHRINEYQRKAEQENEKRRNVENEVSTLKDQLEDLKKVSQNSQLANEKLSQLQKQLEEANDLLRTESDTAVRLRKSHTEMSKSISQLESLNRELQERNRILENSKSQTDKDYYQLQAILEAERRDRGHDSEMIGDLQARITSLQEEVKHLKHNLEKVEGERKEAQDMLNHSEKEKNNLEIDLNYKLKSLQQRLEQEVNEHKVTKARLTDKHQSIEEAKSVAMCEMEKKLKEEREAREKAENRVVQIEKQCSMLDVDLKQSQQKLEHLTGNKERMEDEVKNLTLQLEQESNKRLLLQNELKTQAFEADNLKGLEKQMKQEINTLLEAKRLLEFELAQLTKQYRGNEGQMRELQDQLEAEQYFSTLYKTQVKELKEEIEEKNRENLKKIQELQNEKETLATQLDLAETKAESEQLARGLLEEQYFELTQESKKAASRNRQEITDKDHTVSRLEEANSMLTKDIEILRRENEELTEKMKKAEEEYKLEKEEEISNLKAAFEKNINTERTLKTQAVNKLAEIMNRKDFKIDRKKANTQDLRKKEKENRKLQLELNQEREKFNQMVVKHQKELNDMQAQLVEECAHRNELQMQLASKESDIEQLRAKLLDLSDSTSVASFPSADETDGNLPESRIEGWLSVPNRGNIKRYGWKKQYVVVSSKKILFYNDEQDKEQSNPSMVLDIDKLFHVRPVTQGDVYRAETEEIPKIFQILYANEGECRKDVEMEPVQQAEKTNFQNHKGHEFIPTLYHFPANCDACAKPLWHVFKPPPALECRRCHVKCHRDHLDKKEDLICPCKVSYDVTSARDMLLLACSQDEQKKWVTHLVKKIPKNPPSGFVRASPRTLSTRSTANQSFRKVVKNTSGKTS

IRAK4 = target: T3, IRAK4 (Homo sapiens, UniProt Q9NWZ3); assay: Radiometric kinase activity; conditions: ± S.D. between two samples, SD
T3 sequence (Q9NWZ3 1-460): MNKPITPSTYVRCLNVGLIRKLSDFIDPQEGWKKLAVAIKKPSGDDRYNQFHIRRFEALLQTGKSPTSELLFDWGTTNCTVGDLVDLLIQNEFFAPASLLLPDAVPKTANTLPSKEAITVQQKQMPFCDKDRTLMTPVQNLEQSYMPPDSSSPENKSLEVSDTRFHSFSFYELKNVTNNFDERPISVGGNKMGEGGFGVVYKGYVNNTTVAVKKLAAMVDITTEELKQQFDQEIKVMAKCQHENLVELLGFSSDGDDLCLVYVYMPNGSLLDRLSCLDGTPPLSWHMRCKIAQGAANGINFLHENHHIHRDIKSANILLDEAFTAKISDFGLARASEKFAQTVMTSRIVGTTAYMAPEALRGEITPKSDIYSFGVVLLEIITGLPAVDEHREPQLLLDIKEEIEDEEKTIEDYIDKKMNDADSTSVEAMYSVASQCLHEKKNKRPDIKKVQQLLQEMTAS

SAPK2a (p38α) = SAPK2a (p38α) (Homo sapiens, UniProt Q16539); assay: Radiometric kinase activity; conditions: ± S.D. between two samples, SD
Sequence of SAPK2a (p38α) (Q16539 whole entry): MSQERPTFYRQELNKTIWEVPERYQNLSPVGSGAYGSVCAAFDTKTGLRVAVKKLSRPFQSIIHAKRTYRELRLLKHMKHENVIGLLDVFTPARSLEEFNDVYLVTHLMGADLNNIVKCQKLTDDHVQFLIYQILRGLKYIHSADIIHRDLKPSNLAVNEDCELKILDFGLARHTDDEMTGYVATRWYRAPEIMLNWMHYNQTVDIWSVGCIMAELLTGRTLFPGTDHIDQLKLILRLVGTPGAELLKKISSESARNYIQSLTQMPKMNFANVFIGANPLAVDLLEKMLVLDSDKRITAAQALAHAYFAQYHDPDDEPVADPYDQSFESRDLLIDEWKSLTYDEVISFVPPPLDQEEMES

MK2 [2] = target: T2, MK2; assay: Radiometric kinase activity; conditions: ± S.D. between two samples, SD
PKBβ = PKBβ (Homo sapiens, UniProt P31751); assay: Radiometric kinase activity; conditions: SD; for Percentage kinase activity, PKBβ: peptide 300 μM, ± S.D. between two samples
Sequence of PKBβ (P31751 whole entry): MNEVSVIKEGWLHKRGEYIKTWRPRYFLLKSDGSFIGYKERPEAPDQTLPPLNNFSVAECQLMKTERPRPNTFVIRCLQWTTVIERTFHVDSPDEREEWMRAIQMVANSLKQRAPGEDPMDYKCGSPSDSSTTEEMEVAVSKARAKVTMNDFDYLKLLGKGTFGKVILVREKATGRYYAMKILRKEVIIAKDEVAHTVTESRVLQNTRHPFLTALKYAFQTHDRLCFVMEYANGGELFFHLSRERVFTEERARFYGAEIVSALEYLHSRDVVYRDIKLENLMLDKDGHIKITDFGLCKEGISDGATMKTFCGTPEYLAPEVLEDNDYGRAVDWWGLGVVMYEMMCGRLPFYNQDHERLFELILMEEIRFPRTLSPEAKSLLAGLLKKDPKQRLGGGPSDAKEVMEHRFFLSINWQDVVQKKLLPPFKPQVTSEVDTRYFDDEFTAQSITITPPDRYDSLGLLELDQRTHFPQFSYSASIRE

MK2 [3] = target: T2, MK2; assay: Fluorescence-based kinase activity assay
[4] = read-out: Percentage kinase activity, PKBβ

Row | Compound | Percentage kinase activity, MK5 (MK5; peptide 100 μM) [%] | Percentage kinase activity, MK3 (MK3; peptide 100 μM) [%] | Percentage kinase activity, PKCδ (PKCδ; peptide 100 μM) [%] | IC50 (MK2 [1]) [nM] | Percentage kinase activity, CaMKI (CaMKI; peptide 100 μM) [%] | Percentage kinase activity, MLCK (MLCK; peptide 100 μM) [%] | Percentage kinase activity, ROCK-I (ROCK-I; peptide 100 μM) [%] | Percentage kinase activity, IRAK4 (IRAK4; peptide 100 μM) [%] | Percentage kinase activity, SAPK2a (p38α) (SAPK2a (p38α); peptide 100 μM) [%] | Percentage kinase activity, MK2 (MK2 [2]; peptide 100 μM) [%] | activity at 100 µM (PKBβ; [4]) [%] | Percentage kinase activity, MK5 (MK5; peptide 300 μM) [%] | Percentage kinase activity, MK3 (MK3; peptide 300 μM) [%] | Percentage kinase activity, MK2 (MK2 [2]; peptide 300 μM) [%] | Percentage kinase activity, PKBβ (PKBβ) [%] | other results
1 | CC(C)C[C@H](NC(=O)[C@H](C)NC(=O)[C@H](CCCCN)NC(=O)[C@H](CCCNC(=N)N)NC(=O)[C@H](Cc1ccc(O)cc1)NC(=O)[C@H](CC(C)C)NC(=O)[C@H](CCCNC(=N)N)NC(=O)[C@H](C)NC(=O)[C@H](C)NC(=O)[C@H](CC(C)C)NC(=O)[C@H](CCCCN)NC(=O)[C@H](C)NC(=O)[C@@H](N)Cc1ccccc1)C(=O)N[C@@H](C)C(=O)N[C@@H](CCCNC(=N)N)C(=O)N[C@@H](CCC(N)=O)C(=O)N[C@@H](CC(C)C)C(=O)NCC(=O)N[C@H](C(=O)N[C@@H](C)C(=O)N[C@@H](C)C(N)=O)C(C)C | 131 ± 4 | 10 ± 1 | 40 ± 2 | 1800 | 0 ± 2 | 1 ± 1 | 25 ± 2 | 13 ± 4 | 30 ± 6 | 5 ± 2 | 16 ± 5 |  |  |  |  | 
2 | CC(C)C[C@H](NC(=O)[C@H](C)NC(=O)[C@H](CCCCN)NC(=O)[C@H](CCCNC(=N)N)NC(=O)[C@H](Cc1ccc(O)cc1)NC(=O)[C@H](CC(C)C)NC(=O)[C@H](CCCNC(=N)N)NC(=O)[C@H](C)NC(=O)[C@H](C)NC(=O)[C@H](CC(C)C)NC(=O)[C@H](CCCCN)NC(=O)[C@H](C)NC(=O)[C@H](Cc1ccccc1)NC(=O)[C@H](C)NC(=O)[C@@H](N)CCCCN)C(=O)N[C@@H](C)C(=O)N[C@@H](CCCNC(=N)N)C(=O)N[C@@H](CCC(N)=O)C(=O)N[C@@H](CC(C)C)C(=O)NCC(=O)N[C@H](C(=O)N[C@@H](C)C(=O)N[C@@H](C)C(N)=O)C(C)C | 148 ± 4 | 17 ± 1 | 24 ± 3 | 4400 | 0 ± 2 | 2 ± 0 | 29 ± 0 | 16 ± 2 | 59 ± 8 | 8 ± 1 | 28 ± 4 |  |  |  |  | 
3 | CC[C@H](C)[C@H](NC(=O)[C@H](CCCNC(=N)N)NC(=O)[C@H](CCCNC(=N)N)NC(=O)[C@H](CC(C)C)NC(=O)[C@H](Cc1c[nH]c2ccccc12)NC(=O)[C@H](C)NC(=O)[C@H](CCCCN)NC(=O)[C@@H](NC(=O)[C@H](CCCNC(=N)N)NC(=O)[C@H](CCCNC(=N)N)NC(=O)[C@H](CC(C)C)NC(=O)[C@@H](N)Cc1c[nH]c2ccccc12)[C@@H](C)CC)C(=O)N[C@@H](CCCCN)C(=O)N[C@@H](C)C(=O)N[C@@H](CC(C)C)C(=O)N[C@@H](CC(N)=O)C(=O)N[C@@H](CCCNC(=N)N)C(=O)N[C@@H](CCC(N)=O)C(=O)N[C@@H](CC(C)C)C(=O)NCC(=O)N[C@H](C(=O)N[C@@H](C)C(=O)N[C@@H](C)C(N)=O)C(C)C |  |  |  | 740 |  |  |  |  |  |  |  |  |  |  |  | Percentage kinase activity, MK5 (MK5; peptide 30 μM): 67 ± 9%; Percentage kinase activity, MK3 (MK3; peptide 30 μM): 16 ± 2%; Percentage kinase activity, PKCδ (PKCδ; peptide 30 μM): 11 ± 0%; Percentage kinase activity, CaMKI (CaMKI; peptide 30 μM): 9 ± 1%; Percentage kinase activity, MLCK (MLCK; peptide 30 μM): 4 ± 1%; Percentage kinase activity, ROCK-I (ROCK-I; peptide 30 μM): 0 ± 1%; Percentage kinase activity, IRAK4 (IRAK4; peptide 30 μM): 12 ± 1%; Percentage kinase activity, SAPK2a (p38α) (SAPK2a (p38α); peptide 30 μM): 61 ± 7%; Percentage kinase activity, MK2 (MK2 [2]; peptide 30 μM): 2 ± 1%; activity at 30 µM (PKBβ; [4]): 18 ± 2%
4 | YARAAARQARAKALARQLGVAA |  |  |  |  |  |  |  |  |  |  |  | 86 ± 2 | 5 ± 1 | 0 ± 0 | 17 ± 2 | Percentage kinase activity, MLCK (MLCK; peptide 300 μM): 9 ± 0%
5 | YARAAARQARAKALNRQLGVAA |  |  |  |  |  |  |  |  |  |  |  | 81 ± 3 | 19 ± 3 | 10 ± 3 | 96 ± 1 | Percentage kinase activity, PKCδ (PKCδ; peptide 300 μM): 105 ± 2%; Percentage kinase activity, CaMKI (CaMKI; peptide 300 μM): 8 ± 1%; Percentage kinase activity, ROCK-I (ROCK-I; peptide 300 μM): 95 ± 7%; Percentage kinase activity, IRAK4 (IRAK4; peptide 300 μM): 68 ± 3%; Percentage kinase activity, SAPK2a (p38α) (SAPK2a (p38α); peptide 300 μM): 100 ± 6%
6 | YGRKKRRQRRR |  |  |  |  |  |  |  |  |  |  |  |  |  |  |  | inhibition of MK2 activity (MK2 [3]; peptide 25 μM): 47.7%; inhibition of MK2 activity (MK2 [3]; peptide 100 μM): 61.2%
